The values that follow come from BindingDB's records for doi:10.1016/S1074-5521(03)00159-5 (Merck Research Laboratories, 2003).

The target of this assay is Mitogen-activated protein kinase 14 (Homo sapiens, UniProt Q16539). The assay is described as follows: Homogeneous Time-Resolved Fluorescence (HTRF) Enzyme Assay. The conditions noted are these: pH 7; 22 °C. The method, then: The HTRF signal is calculated as a ratio of the A-counts to B-counts. The signal produced is proportional to the amount of JNK3 or p38 kinase activity present during the kinase reaction phase.
Sequence of Mitogen-activated protein kinase 14 (Q16539 whole entry): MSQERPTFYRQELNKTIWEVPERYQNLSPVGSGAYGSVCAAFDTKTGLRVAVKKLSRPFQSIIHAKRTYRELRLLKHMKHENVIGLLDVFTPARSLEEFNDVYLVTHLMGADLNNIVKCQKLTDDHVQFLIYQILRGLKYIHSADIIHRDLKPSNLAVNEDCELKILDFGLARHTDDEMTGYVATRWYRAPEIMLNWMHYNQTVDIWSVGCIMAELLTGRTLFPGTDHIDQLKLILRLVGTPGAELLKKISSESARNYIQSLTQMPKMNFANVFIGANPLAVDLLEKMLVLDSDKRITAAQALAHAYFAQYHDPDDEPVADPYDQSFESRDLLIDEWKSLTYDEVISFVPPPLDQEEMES
(In general: Time-resolved FRET reads energy transfer from a long-lived donor to a nearby acceptor.)
`CCCn1c(C2CCN(C)CC2)nc(-c2ccc(Cl)c(Cl)c2)c1-c1ccnc(NC2CC2)n1`: the IC50 (commonly the midpoint of a concentration-inhibition curve) was determined as 0.078 nM.
`CCCn1c(C2CCNCC2)nc(-c2ccc(Cl)c(Cl)c2)c1-c1ccnc(NC2CCCCC2)n1` showed an IC50 of 4 nM.
The figure for `Oc1ccc(-c2cnc3ccc4ccncc4c3c2)cc1` [4-(2,7-phenanthrolin-9-yl)phenol] is above 40000 nM.
